The structures appear in SMILES notation.

For the first assay, the target named is T1, HCV NS3 helicase NS3h_1b(con1) (Hepatitis C virus genotype 1b, UniProt Q9WMX2).
T1 construct: truncated C-terminally His-tagged NS3 proteins lacking the N-terminal protease, called NS3h; His-tag (C); made in house
T1 sequence (Q9WMX2 1192-1657): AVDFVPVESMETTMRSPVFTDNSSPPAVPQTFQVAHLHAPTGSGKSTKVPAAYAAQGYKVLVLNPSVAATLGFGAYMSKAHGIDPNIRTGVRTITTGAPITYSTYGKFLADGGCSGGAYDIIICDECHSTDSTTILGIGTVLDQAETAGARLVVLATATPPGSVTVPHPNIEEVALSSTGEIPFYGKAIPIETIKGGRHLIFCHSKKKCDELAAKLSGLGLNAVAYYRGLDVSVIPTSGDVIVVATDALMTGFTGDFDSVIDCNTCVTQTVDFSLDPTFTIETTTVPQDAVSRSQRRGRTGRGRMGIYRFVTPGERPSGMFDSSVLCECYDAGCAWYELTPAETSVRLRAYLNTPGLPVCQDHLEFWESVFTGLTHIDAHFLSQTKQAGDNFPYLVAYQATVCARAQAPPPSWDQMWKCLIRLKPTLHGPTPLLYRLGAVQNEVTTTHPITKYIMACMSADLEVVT
In words: MBHA screen of NCI mechanistic set library at 20 μM (percent inhibition, compound interference). The format is biochemical. Particulars: compounds at 20 μM, MBHA with DNA substrate; assay interference calculated with Equation 2. In a few lines:
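Molecular beacon-based DNA unwinding assay; compounds screened at 20 μM in triplicate, with DMSO-only negative and 500 nM dT20 positive controls. Fluorescence (ex 643/em 670 nm) was read before and 30 min after adding ATP to 1 mM. Percent inhibition came from the change relative to DMSO controls; interference from pre-ATP fluorescence versus DMSO controls.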
For `COc1ccc(C=CC(=O)Oc2cc(O)cc(O)c2)cc1` [Compound 175296], the “Int.* (Ratio) (Interference)” value is reported as 0.90 Ratio.
Regarding `Cc1ccc(C2NC(=O)c3ccccc3N2)s1` (stereo not shown) [Compound 175634], the “Int.* (Ratio) (Interference)” value is listed as 0.93 Ratio.
On the same count and under the same terms, the value for `C(=C/c1nc2ccccc2o1)/c1ccc2c(c1)OCO2` [Compound 176655] was 1.08 Ratio; that for `COc1ccc(O)c2c(=O)c3c(OC)cc4c(c3oc12)[C@@H]1C=CO[C@@H]1O4` [Compound 178249] was 0.87 Ratio.
With `CC/C(=C(\c1ccccc1)c1ccc(OCCN(C)C)cc1)c1ccccc1.O=C(O)CC(O)(CC(=O)O)C(=O)O` [Compound 180973], the “Int.* (Ratio) (Interference)” value is recorded as 0.90 Ratio.
Regarding `COc1ccc2cc1Oc1ccc(cc1)CC1c3c(cc(OC)c4c3Oc3cc5c(cc3O4)CCNC5C2)CCN1C` (stereo not shown) [Compound 181486], the “Int.* (Ratio) (Interference)” value is on record as 0.50 Ratio.
With `CCOC(=O)NC1=C(N2CC2)C(=O)C(NC(=O)OCC)=C(N2CC2)C1=O` [Compound 182986], the “Int.* (Ratio) (Interference)” value is reported as 1.18 Ratio.
As to `CCC[CH2][Sn]1([CH2]CCC)[S]CC[N]1S(=O)(=O)c1ccc(C)cc1` [Compound 183359], the “Int.* (Ratio) (Interference)” value is listed as 0.83 Ratio.
For `C[n+]1cc2cc(O)c(O)cc2c2ccc3cc(O)c(O)cc3c21.Cl.[Cl-].c1ccncc1` [Compound 184403], the “Int.* (Ratio) (Interference)” value was 0.42 Ratio.
`Cc1cc(C)c(NC(=O)/C=C/c2ccccc2)c(C)c1` [Compound 191384]: the “Int.* (Ratio) (Interference)” value is 1.07 Ratio.
In the case of `Cc1ccc(NC(=O)/C=C/c2ccccc2)c(C)c1` [Compound 191389], the “Int.* (Ratio) (Interference)” value is reported as 1.06 Ratio.

Still in this assay, the particulars now being: compounds at 20 μM, MBHA with DNA substrate; calculated from Equation 1.
Regarding `COc1ccc(C=CC(=O)Oc2cc(O)cc(O)c2)cc1` [Compound 175296], the “Inh. (%) (Inhibition)” value is 4.7%.
On to `Cc1ccc(C2NC(=O)c3ccccc3N2)s1` (stereo not shown) [Compound 175634], for which the “Inh. (%) (Inhibition)” value is reported as 1.5%.
The same measure, in the same setting: the same measure for `C(=C/c1nc2ccccc2o1)/c1ccc2c(c1)OCO2` [Compound 176655]: 0.3%; for `COc1ccc(O)c2c(=O)c3c(OC)cc4c(c3oc12)[C@@H]1C=CO[C@@H]1O4` [Compound 178249]: 2.4%; for `CC/C(=C(\c1ccccc1)c1ccc(OCCN(C)C)cc1)c1ccccc1.O=C(O)CC(O)(CC(=O)O)C(=O)O` [Compound 180973]: 13.5%.
Still for that read-out and setting: the same measure for `COc1ccc2cc1Oc1ccc(cc1)CC1c3c(cc(OC)c4c3Oc3cc5c(cc3O4)CCNC5C2)CCN1C` (stereo not shown) [Compound 181486]: 38.3%.
Turning to `CCOC(=O)NC1=C(N2CC2)C(=O)C(NC(=O)OCC)=C(N2CC2)C1=O` [Compound 182986], the “Inh. (%) (Inhibition)” value is reported as −16.6%.
Turning to `CCC[CH2][Sn]1([CH2]CCC)[S]CC[N]1S(=O)(=O)c1ccc(C)cc1` [Compound 183359], the “Inh. (%) (Inhibition)” value is 13.3%.
In the case of `C[n+]1cc2cc(O)c(O)cc2c2ccc3cc(O)c(O)cc3c21.Cl.[Cl-].c1ccncc1` [Compound 184403], the “Inh. (%) (Inhibition)” value is given as 27.4%.
With `Cc1cc(C)c(NC(=O)/C=C/c2ccccc2)c(C)c1` [Compound 191384], the “Inh. (%) (Inhibition)” value is −1.8%.
For `Cc1ccc(NC(=O)/C=C/c2ccccc2)c(C)c1` [Compound 191389], the “Inh. (%) (Inhibition)” value is listed as −2.3%.

Staying with this assay, now noted: compounds at 20 μM, MBHA with a DNA substrate; calculated from Equation 1.
In the case of `N[C@H](C(=O)O)[C@@H]1CC(Cl)=NO1` [Compound 163501], the “Inh. (%) (Inhibition)” value is on record as 10.3%.
With `CC(=O)[O][Sn]([CH2]c1ccccc1)([CH2]c1ccccc1)[CH2]c1ccccc1` [Compound 164909], the “Inh. (%) (Inhibition)” value is −20.2%.
As to `CCC[CH2][Sn]([CH2]CCC)([CH2]CCC)[O]c1cc(Cl)c(Cl)cc1Cl` [Compound 164914], the “Inh. (%) (Inhibition)” value was 11.5%.
For `CN1CCN(CCNc2ccc(CO)c3sc4ccccc4c(=O)c23)CC1` [Compound 166381], the “Inh. (%) (Inhibition)” value is reported as 7.6%.
In the case of `CNC(=S)N/N=C/c1ccc([N+](=O)[O-])s1` [Compound 169543], the “Inh. (%) (Inhibition)” value is on record as 9.6%.
In the case of `N=N/C(=C\c1c(O)[nH]c2ccccc12)c1ccccc1` [Compound 175274], the “Inh. (%) (Inhibition)” value is 7.0%.
As to `O=C1NC(c2cccc3ccccc23)Nc2ccc(Cl)cc21` (stereo not shown) [Compound 175636], the “Inh. (%) (Inhibition)” value is recorded as −5.0%.
For the compound `N[C@H](C(=O)O)[C@H]1ON=C(Cl)[C@H]1O` [Compound 176324], the “Inh. (%) (Inhibition)” value is reported as −6.8%.
`NC(N)=NCCCS(=O)(=O)Nc1ccc(Nc2c3ccccc3nc3cc([N+](=O)[O-])ccc23)cc1` [Compound 177365]: the “Inh. (%) (Inhibition)” value is listed as 9.2%.
For the compound `C[C@H]1O[C@@H](c2ccc3c(c2O)C(=O)C2=C(C3=O)[C@@]3(O)C(=O)C[C@](C)(O)C[C@@]3(O)C=C2)C[C@@H](O)[C@@H]1O` [Compound 184398], the “Inh. (%) (Inhibition)” value is reported as −39.0%.
Consider `NC(=S)N/N=C/c1ccc(OC(=O)COc2ccccc2Cl)cn1` [Compound 185056], for which the “Inh. (%) (Inhibition)” value is 6.8%.
Regarding `Oc1ccc(/C=N/NC(=S)Nc2cccnc2)nc1` [Compound 185065], the “Inh. (%) (Inhibition)” value is recorded as −26.6%.

The same assay, now with this note: compounds at 20 μM; assay interference calculated with Equation 2 (fluorescence vs DMSO-only controls before ATP).
Take `N[C@H](C(=O)O)[C@@H]1CC(Cl)=NO1` [Compound 163501]: the “Int.* (Ratio) (Interference)” value is reported as 0.91 Ratio.
As for `CC(=O)[O][Sn]([CH2]c1ccccc1)([CH2]c1ccccc1)[CH2]c1ccccc1` [Compound 164909], the “Int.* (Ratio) (Interference)” value was 1.04 Ratio.
Regarding `CCC[CH2][Sn]([CH2]CCC)([CH2]CCC)[O]c1cc(Cl)c(Cl)cc1Cl` [Compound 164914], the “Int.* (Ratio) (Interference)” value is 0.91 Ratio.
As for `CN1CCN(CCNc2ccc(CO)c3sc4ccccc4c(=O)c23)CC1` [Compound 166381], the “Int.* (Ratio) (Interference)” value is on record as 0.82 Ratio.
Regarding `CNC(=S)N/N=C/c1ccc([N+](=O)[O-])s1` [Compound 169543], the “Int.* (Ratio) (Interference)” value was 1.02 Ratio.
For `N=N/C(=C\c1c(O)[nH]c2ccccc12)c1ccccc1` [Compound 175274], the “Int.* (Ratio) (Interference)” value was 1.09 Ratio.
Take `O=C1NC(c2cccc3ccccc23)Nc2ccc(Cl)cc21` (stereo not shown) [Compound 175636]: the “Int.* (Ratio) (Interference)” value is given as 0.96 Ratio.
In the case of `N[C@H](C(=O)O)[C@H]1ON=C(Cl)[C@H]1O` [Compound 176324], the “Int.* (Ratio) (Interference)” value is 1.02 Ratio.
On to `NC(N)=NCCCS(=O)(=O)Nc1ccc(Nc2c3ccccc3nc3cc([N+](=O)[O-])ccc23)cc1` [Compound 177365], for which the “Int.* (Ratio) (Interference)” value was 0.49 Ratio.
Same read-out and setting: the same measure for `C[C@H]1O[C@@H](c2ccc3c(c2O)C(=O)C2=C(C3=O)[C@@]3(O)C(=O)C[C@](C)(O)C[C@@]3(O)C=C2)C[C@@H](O)[C@@H]1O` [Compound 184398]: 1.09 Ratio; for `NC(=S)N/N=C/c1ccc(OC(=O)COc2ccccc2Cl)cn1` [Compound 185056]: 0.90 Ratio.
On to `Oc1ccc(/C=N/NC(=S)Nc2cccnc2)nc1` [Compound 185065], for which the “Int.* (Ratio) (Interference)” value is on record as 1.11 Ratio.

Values taken from patent US9464064B2, “HCV helicase inhibitors and methods of use thereof” (University of Kansas, priority 2011, dated 2016).
